Values quoted from earlier work in patent US6534285B1 (priority 1984, dated 2003).

Molecular target: AIDS reverse transcriptase (Human immunodeficiency virus type 1 group M subtype B, UniProt P04585)
Settings: reference 53

In the case of `Cc1ccc(C(=O)Nc2ccc(S(=O)(=O)O)c3cc(S(=O)(=O)O)cc(S(=O)(=O)O)c23)cc1NC(=O)c1cccc(NC(=O)Nc2cccc(C(=O)Nc3cc(C(=O)Nc4ccc(S(=O)(=O)O)c5cc(S(=O)(=O)O)cc(S(=O)(=O)O)c45)ccc3C)c2)c1` [Suramin], the “inhibition of AIDS reverse transcriptase” value is listed as “known inhibitor”.
